{"source": "paper PMC9186362", "about": "“Design and biological evaluation of substituted 5,7-dihydro-6H-indolo[2,3-c]quinolin-6-one as novel selective Haspin inhibitors” (Journal of Enzyme Inhibition and Medicinal Chemistry, 2022)", "experiment_in_all_cases": "LanthaScreen Binding - Eu-anti-GST", "conditions_in_all_cases": "read-out: Percentage of inhibition", "key": {"HUNK": {"biological_target": "HUNK (Homo sapiens, UniProt P57058)", "sequence (P57058 whole entry)": "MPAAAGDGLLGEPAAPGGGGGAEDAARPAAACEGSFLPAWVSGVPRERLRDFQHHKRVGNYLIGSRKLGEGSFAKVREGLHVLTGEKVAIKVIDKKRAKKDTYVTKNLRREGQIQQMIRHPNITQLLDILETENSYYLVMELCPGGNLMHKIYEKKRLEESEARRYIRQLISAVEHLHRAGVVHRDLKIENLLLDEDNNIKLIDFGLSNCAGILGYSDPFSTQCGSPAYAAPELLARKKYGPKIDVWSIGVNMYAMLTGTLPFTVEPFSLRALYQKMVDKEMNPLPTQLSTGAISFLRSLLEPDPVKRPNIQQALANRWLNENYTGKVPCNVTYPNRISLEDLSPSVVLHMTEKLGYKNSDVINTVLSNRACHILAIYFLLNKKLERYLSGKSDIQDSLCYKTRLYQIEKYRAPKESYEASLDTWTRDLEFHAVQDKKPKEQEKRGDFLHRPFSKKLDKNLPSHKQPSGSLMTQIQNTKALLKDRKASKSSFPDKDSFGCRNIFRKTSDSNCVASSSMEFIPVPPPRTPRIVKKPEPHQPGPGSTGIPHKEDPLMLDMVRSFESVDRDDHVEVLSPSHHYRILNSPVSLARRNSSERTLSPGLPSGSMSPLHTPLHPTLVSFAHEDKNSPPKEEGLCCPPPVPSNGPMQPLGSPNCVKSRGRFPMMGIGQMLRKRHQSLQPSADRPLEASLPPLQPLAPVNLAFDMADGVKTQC", "method_in_brief": "(§1)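 Compound tested at 1 μM only; no dose–response. Data are % inhibition from a whole-panel kinase screen.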"}, "MAP4K1 (HPK1)": {"biological_target": "T1, MAP4K1 (HPK1) (Homo sapiens, UniProt Q92918)", "T1 construct": "purchased Life Technologies (SelectScreen service)", "T1 sequence (Q92918 whole entry)": "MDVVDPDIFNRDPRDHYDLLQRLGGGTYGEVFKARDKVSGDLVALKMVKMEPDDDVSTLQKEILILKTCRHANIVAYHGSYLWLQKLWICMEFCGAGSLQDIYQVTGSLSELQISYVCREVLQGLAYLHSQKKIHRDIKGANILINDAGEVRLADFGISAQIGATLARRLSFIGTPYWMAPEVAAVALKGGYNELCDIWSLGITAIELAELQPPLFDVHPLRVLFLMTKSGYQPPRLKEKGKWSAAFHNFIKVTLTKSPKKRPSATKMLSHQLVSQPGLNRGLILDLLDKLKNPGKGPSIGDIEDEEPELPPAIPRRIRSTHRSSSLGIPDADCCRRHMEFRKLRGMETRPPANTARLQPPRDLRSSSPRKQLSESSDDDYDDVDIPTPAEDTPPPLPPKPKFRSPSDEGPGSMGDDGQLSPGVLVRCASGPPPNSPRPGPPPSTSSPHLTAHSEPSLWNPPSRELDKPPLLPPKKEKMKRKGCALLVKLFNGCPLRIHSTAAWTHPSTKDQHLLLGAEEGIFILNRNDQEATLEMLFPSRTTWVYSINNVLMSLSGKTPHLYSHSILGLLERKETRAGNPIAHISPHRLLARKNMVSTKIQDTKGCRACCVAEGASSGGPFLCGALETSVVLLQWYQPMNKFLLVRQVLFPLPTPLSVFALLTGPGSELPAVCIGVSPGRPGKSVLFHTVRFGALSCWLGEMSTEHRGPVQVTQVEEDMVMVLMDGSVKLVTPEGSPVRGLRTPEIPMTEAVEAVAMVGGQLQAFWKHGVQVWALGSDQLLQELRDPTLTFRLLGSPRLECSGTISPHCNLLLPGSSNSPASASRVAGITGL", "method_in_brief": "as §1"}, "MYLK (MLCK)": {"biological_target": "MYLK (MLCK) (Homo sapiens, UniProt Q15746)", "sequence (Q15746 whole entry)": "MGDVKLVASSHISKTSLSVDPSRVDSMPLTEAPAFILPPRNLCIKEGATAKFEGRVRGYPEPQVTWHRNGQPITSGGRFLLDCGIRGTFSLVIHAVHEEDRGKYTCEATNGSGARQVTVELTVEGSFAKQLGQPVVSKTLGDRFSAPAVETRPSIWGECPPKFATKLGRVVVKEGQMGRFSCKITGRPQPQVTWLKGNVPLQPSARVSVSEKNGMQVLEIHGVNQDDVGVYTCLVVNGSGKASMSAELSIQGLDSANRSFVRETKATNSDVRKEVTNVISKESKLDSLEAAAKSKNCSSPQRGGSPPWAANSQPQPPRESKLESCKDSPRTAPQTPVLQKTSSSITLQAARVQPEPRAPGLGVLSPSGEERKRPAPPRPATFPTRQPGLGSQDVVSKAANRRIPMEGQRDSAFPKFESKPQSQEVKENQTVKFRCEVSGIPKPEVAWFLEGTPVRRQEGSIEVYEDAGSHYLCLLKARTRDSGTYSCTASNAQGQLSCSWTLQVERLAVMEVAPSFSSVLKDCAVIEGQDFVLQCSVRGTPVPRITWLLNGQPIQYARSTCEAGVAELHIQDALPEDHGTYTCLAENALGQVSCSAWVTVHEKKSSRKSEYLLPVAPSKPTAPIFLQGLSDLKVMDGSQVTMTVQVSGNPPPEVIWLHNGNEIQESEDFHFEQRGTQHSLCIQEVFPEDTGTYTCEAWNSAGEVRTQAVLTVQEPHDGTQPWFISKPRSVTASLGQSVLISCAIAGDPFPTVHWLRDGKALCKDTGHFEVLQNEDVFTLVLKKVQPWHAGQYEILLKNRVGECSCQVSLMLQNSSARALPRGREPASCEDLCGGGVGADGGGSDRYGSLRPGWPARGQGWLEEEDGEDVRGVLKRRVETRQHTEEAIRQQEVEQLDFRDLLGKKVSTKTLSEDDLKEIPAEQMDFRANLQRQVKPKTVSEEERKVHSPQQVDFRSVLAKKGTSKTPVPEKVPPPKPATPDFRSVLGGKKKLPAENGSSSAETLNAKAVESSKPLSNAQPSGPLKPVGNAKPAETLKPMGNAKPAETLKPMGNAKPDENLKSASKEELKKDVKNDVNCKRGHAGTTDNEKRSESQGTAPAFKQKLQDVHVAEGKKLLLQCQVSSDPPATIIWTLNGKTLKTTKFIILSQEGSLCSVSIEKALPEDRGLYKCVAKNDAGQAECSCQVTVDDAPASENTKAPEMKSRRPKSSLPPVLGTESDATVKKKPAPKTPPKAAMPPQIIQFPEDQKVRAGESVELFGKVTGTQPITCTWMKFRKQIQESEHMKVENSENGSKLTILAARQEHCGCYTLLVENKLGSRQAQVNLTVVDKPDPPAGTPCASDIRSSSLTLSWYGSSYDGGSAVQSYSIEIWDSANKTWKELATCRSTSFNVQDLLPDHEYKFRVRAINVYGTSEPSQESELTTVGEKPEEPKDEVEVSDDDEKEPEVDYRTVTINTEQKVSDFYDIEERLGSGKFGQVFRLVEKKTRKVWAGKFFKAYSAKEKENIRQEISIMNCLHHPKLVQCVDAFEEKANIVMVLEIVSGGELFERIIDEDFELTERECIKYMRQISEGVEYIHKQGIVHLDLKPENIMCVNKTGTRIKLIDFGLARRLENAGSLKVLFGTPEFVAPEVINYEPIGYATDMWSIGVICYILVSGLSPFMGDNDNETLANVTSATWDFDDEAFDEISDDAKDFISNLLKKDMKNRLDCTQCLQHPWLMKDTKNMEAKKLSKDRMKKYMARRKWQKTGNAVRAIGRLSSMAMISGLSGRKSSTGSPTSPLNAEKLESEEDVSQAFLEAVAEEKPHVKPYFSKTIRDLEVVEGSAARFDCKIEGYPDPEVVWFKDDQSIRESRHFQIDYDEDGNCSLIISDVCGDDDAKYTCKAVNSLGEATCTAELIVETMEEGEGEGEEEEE", "method_in_brief": "as §1"}, "SIK3": {"biological_target": "SIK3 (Homo sapiens, UniProt Q9Y2K2)", "sequence (Q9Y2K2 whole entry)": "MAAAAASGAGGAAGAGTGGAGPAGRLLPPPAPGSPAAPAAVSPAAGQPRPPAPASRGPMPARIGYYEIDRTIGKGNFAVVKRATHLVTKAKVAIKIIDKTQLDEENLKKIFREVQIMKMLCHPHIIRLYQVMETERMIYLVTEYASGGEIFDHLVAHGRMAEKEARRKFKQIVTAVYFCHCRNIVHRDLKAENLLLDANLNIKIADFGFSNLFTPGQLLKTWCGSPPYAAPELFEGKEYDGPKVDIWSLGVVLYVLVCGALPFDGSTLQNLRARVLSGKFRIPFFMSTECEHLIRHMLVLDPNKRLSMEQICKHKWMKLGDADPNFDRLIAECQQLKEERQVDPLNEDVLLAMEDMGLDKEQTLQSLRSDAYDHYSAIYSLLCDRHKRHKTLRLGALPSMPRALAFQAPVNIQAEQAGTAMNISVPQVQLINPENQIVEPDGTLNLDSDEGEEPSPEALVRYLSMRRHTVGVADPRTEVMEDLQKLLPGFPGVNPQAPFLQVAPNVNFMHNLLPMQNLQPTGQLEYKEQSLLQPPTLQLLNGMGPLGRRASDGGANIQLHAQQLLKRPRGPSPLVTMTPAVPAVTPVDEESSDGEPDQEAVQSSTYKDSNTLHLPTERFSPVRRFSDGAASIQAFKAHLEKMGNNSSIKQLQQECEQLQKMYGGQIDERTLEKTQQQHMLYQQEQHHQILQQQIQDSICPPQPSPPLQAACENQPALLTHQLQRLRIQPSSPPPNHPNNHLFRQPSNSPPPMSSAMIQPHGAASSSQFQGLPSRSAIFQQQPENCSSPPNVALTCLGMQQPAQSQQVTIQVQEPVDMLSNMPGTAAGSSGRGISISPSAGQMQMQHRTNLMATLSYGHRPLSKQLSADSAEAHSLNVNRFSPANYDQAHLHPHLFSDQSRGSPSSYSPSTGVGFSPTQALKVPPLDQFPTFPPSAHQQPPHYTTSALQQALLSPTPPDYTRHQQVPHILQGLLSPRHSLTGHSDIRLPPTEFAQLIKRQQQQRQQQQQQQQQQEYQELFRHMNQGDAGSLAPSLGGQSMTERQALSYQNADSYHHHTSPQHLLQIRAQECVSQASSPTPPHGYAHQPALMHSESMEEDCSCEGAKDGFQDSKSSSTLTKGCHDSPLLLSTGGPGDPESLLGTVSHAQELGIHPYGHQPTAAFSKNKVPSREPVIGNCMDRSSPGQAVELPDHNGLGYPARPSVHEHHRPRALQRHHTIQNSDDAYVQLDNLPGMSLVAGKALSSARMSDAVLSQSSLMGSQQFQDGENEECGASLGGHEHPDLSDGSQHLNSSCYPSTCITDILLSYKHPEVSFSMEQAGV", "method_in_brief": "as §1"}}}
{"smiles": "COc1ccc2[nH]c3c(=O)[nH]c4ccc(O)cc4c3c2c1", "note": "[Compound 55, 2-Hydroxy-10-methoxy-5,7-dihydro-6H-indolo[2,3-c]quinolin-6-one]", "values": [{"measurement": "inhibition at 1 µM", "setting": "HUNK", "result": 20, "unit": "%"}, {"measurement": "inhibition at 1 µM", "setting": "MAP4K1 (HPK1)", "result": 81, "unit": "%"}, {"measurement": "inhibition at 1 µM", "setting": "MYLK (MLCK)", "result": 60, "unit": "%"}, {"measurement": "inhibition at 1 µM", "setting": "SIK3", "result": 7, "unit": "%"}]}
